From patent US11440880B2, “Thalidomide analogs and methods of use” (The USA, as represented by the Secretary, Department of …, priority 2015, dated 2022)
“Also recorded” adds a separate entry of the source.

Columns and labels:
[1] = tested on: fli1:EGFP zebrafish embryos (intersegmental vessel growth); assay: fli1:EGFP zebrafish embryo angiogenesis assay; format: in vivo; parameters: fli1:EGFP angiogenesis n (survived/tested): concentration or dose not given beside the values; conditions: for minimal effective concentration: Danio rerio, lowest concentration producing an effect, compounds not producing an effect shown at the highest evaluated concentration; for fli1:EGFP angiogenesis n (survived/tested): embryos alive after 24 hours of exposure
Outline: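 fli1:EGFP embryos grown 24 hpf, dechorionated and exposed to compound or vehicle over a range of concentrations for up to 24 h, with CPS49 as positive control. Imaged at 48 hpf for intersegmental vessel formation and growth; survival after 24 h exposure recorded, and values reflect the lowest concentration producing an effect.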

[2] = tested on: WT zebrafish embryos; assay: WT zebrafish embryo development / teratogenicity; format: in vivo, zebrafish (Danio rerio); conditions: in words; at concentrations active in fli1:EGFP or mpo:GFP assays
Source text: To determine the effects of the candidate compounds on embryonic development, two in vivo model systems (developing zebrafish and chicken embryos) were utilized.
Malformations in the development of the zebrafish embryo were noted, including inhibition of eye, otic vesicle and fin development (FIGS. 7A-7F). […] Embryos were screened at concentrations previously determined, in this study, to be anti-angiogenic or anti-inflammatory in the fli1:EGFP and mpo:GFP assays respectively.
(§1) Concentrations used in the WT zebrafish and chicken embryo assays to assess for teratogenesis, were equal to or higher than those utilized in the fil1:EGFP and mpo:GFP zebrafish assays

[3] = tested on: chicken embryos; assay: Chicken embryo development / teratogenicity; format: in vivo, white leghorn chicken; conditions: in words; applied at HH stage 17-18
Experimental: Chicken Embryology: Fertilized white leghorn chicken embryos were incubated at 38° C. and staged according to Hamburger and Hamilton (HH) stages of development (1951). Embryos were tested at HH stage 17-18 (day 2.5). Following membrane removal, test compounds or vehicle control solutions were applied globally over the embryo. The eggs were sealed and the development of the embryos was monitored up to HH stage 30 (E9).
Compounds of interest were screened in chicken embryos (FIGS. 7I-7P).
as §1

[4] = tested on: mpo:GFP zebrafish embryos (neutrophil migration to the wound site); assay: mpo:GFP zebrafish fin-clip neutrophil migration (inflammation) assay; format: in vivo; parameters: mpo:GFP inflammation n (survived/tested): concentration or dose not given beside the values; conditions: for minimal effective concentration: Danio rerio, Neutrophil, lowest concentration producing an effect, compounds not producing an effect shown at the highest evaluated concentration; for mpo:GFP inflammation n (survived/tested): embryos survived/tested at the concentration given
Outline: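 Tg(mpo::EGFP) larvae tail-fin clipped (dorsal third removed) at 72 hpf, then immersed in compound or vehicle. Neutrophils migrating to the wound site counted from images 24 h later; at least 50% reduction scored as anti-inflammatory. Viability and morphology also assessed.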

[5] = tested on: RAW 264.7 cells; assay: Cell viability (CellTiter 96 AQueous One) of LPS-challenged RAW 264.7 cells; format: cell-based, mouse; parameters: key: NS=not significant; a “+” sign=anti-inflammatory or increased cell numbers; a “−” sign=cell toxicity or pro-inflammatory
Outline: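 RAW 264.7 murine macrophages pretreated 1 h with compound or DMSO vehicle, then challenged with LPS (serotype 055:B5) at 30 or 60 ng/mL final for 24 h. After media replacement, viability measured by tetrazolium (MTS) conversion, absorbance at 490 nm, reported as O.D.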

[6] = tested on: nitrite levels in the culture media; assay: Nitrite level (Griess Reagent System) in LPS-challenged RAW 264.7 cells; format: cell-based, mouse; parameters: key: NS=not significant; a “+” sign=anti-inflammatory or increased cell numbers; a “−” sign=cell toxicity or pro-inflammatory; conditions: LPS 30 or 60 ng/mL, 24 h
Outline: (§2)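 RAW 264.7 cells pretreated 1 h with compound in DMSO vehicle, then challenged with LPS (30 or 60 ng/mL) for 24 h at 37° C. Conditioned-media nitrite by Griess (520 nm, sodium nitrite standard curve, 1.5 μM cutoff) in μM; mouse TNF-α by ELISA as pg/ml or % change from control.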

[7] = tested on: TNF-α protein; assay: TNF-α protein level (ELISA) in LPS-challenged RAW 264.7 cells; format: cell-based, mouse; parameters: key: NS=not significant; a “+” sign=anti-inflammatory or increased cell numbers; a “−” sign=cell toxicity or pro-inflammatory; conditions: LPS 30 or 60 ng/mL, 24 h
Outline: as §2

[8] = tested on: human saphenous vein sections (microvessel outgrowth); assay: Human saphenous vein assay of angiogenesis (ex vivo); format: cell-based; conditions: positive control, 10 days of incubation
Experimental: The saphenous vein was cleaned of subcutaneous tissue and embedded in Matrigel® matrix as previously described. After 10 days of incubation, the transverse sections of the veins were imaged. The outgrowth between the vehicle and no treatment (media) control was equivalent (106.65%±20.14, n=2 and 103.35%±4.06, n=2 respectively; FIGS. 13A and 13B).

| SMILES | minimal effective concentration [1] | fli1:EGFP angiogenesis n (survived/tested) [1] | concentration at which anti-angiogenic activity was shown ([1]; exposure from 24 hpf, imaged at 48 hpf) | effect on development / mortality of zebrafish embryos [2] | effect on development / mortality of chicken embryos [3] | minimal effective concentration [4] | mpo:GFP inflammation n (survived/tested) [4] | Viability ([5]; 1 μM) | Viability ([5]; 10 μM) | Viability ([5]; 30 μM) | Nitrite ([6]; 1 μM) | Nitrite ([6]; 10 μM) | Nitrite ([6]; 30 μM) | TNF-α ([7]; 1 μM) | TNF-α ([7]; 10 μM) | TNF-α ([7]; 30 μM) | vessel outgrowth [8] |
| --- | --- | --- | --- | --- | --- | --- | --- | --- | --- | --- | --- | --- | --- | --- | --- | --- | --- |
| O=C1c2ccccc2C(=S)N1C1CCC(=S)NC1=S (stereo not drawn) [Compound 4] | 1.5 µg/mL | 4/11 | 1.5 µg/mL | defects and high mortality rates; also recorded: induced defects (e.g., microophthalmia and fin malformation) | defects and high mortality rates | 10 µg/mL | 19/23 |  |  |  |  |  |  |  |  |  |  |
| Nc1ccc2c(c1)C(=O)N(C1CCC(=O)NC1=O)C2=O (stereo not drawn) [Compound 11] | 50 µg/mL | 24/43 |  |  | missing digits in the hindlimb; also recorded: limb reduction defect | 10 µg/mL | 16/22 |  |  |  |  |  |  |  |  |  |  |
| O=C1NC(=S)CCC1N1C(=O)c2ccc(Cl)cc2C1=O (stereo not drawn) [Compound 23] | 10 µg/mL | 23/30 |  |  | constriction in vasculature (white arrow) and necrosis (black arrow) of the chorioallantoic membrane | 10 µg/mL | 13/35 |  |  |  |  |  |  |  |  |  |  |
| O=C1c2cccc([N+](=O)[O-])c2CN1C12CC3CC(CC(C3)C1)C2 [Compound 76, 2,3-Dihydro-4-nitro-2-(tricyclo[3.3.1.1^3,7]dec-1-yl)-1H-isoindol-1-one] | 10 µg/mL | 28/32 |  |  |  | 100 µg/mL | 5/11 | NS | NS | NS | NS | + | + | NS | NS | + |  |
| CC(N1Cc2c(cccc2[N+](=O)[O-])C1=O)C12CC3CC(CC(C3)C1)C2 (stereo not drawn) [Compound 80] |  |  |  |  | microophthalmia (asterisk), limb reduction (white arrow), and hemorrhaging throughout the body |  |  | NS | − | NS | NS | + | + | NS | + | + |  |
| O=C1c2cccc([N+](=O)[O-])c2CN1C1C2CC3CC(C2)CC1C3 (stereo not drawn) [Compound 82] | 5 µg/mL | 18/27 |  |  |  | 5 µg/mL | 8/22 | NS | − | − | + | + | + | NS | + | + |  |
| Nc1cccc2c1CN(C1C3CC4CC(C3)CC1C4)C2=O (stereo not drawn) [Compound 83] | 20 µg/mL | 3/12 |  |  |  | 20 µg/mL | 6/23 | NS | NS | NS | NS | + | + | NS | NS | NS |  |
| O=C1c2cccc([N+](=O)[O-])c2CN1C12CC3CC(CC1C3)C2 [Compound 84] | 50 µg/mL | 2/11 |  |  |  | 10 µg/mL | 12/21 | NS | NS | NS | NS | + | + | NS | NS | NS |  |
| Nc1cccc2c1CN(C13CC4CC(CC1C4)C3)C2=O [Compound 85] | 10 µg/mL | 7/20 |  |  |  | 100 µg/mL | 11/20 | NS | NS | NS | NS | NS | − | NS | NS | NS |  |
| CO[C@@H]1[C@H](OC(=O)NC(=O)CCl)CC[C@]2(CO2)[C@H]1[C@@]1(C)O[C@@H]1CC=C(C)C [TNP-470, (Chloracetyl) carbamic acid (3R,4S,5S,6R)-5-methoxy-4-[(2R,3R)-2-methyl-3-(3-methyl-2-butenyl)oxiranyl]-1-oxaspiro[2.5]oct-6-yl ester, reference compound] |  |  |  |  |  |  |  |  |  |  |  |  |  |  |  |  | 9.44%±1.65 |
